From US11964946B1, “4,5-bis(4-methoxyphenyl)-1-hexyl-2-(4-nitrophenyl)-1H-imidazole as an antimicrobial compound” (KING FAISAL UNIVERSITY, priority 2023, dated 2024)

Assays:
Assay in all cases: Antimicrobial screening, agar dilution method
Format in all cases: cell-based
Details in all cases: after 10, 20, 40 and 60 minutes at all dilutions 1:100, 1:200, 1:400, 1:800
Escherichia coli = tested on: Escherichia coli
Method: (§1) The antimicrobial properties of the 4,5-bis(4-methoxyphenyl)-1-hexyl-2-(4-nitrophenyl)-1H-imidazole was studied by the method of agar dilution. Test solutions of each compound was prepared in concentration of 1% using dimethylformamide as a solvent then they were diluted in physiological solution to obtain the final experimental dilutions 1:100, 1:200, 1:400, 1:800. The effect of these substances were compared with furacillin in a controlled study. The testing microbes used were gram positive bacteria Staphylococcus aureus, gram negative bacteria Pseudomonas aeruginosa and Escherichia coli and Candida albicans fungi were taken. The experiments used for this survey were meat-pentonlu agar (EPA) for cultivation of bacteria and Saburo environment for fungi. Each experiment used 1 ml of test solution on each plate 500 min. Add 2 drops of emulsified with microbes feel. All experimental samples were taken from the agar after 10, 20, 40, 60 minutes in the environment on the basis of Patrk planted. Bacteria were cultivated at a temperature of 37° C. for 1 day and the mushroom was kept in a thermostat for […] at a temperature of 28° C. Then results were checked.

Pseudomonas aeruginosa = tested on: Pseudomonas aeruginosa
Method: as §1

Staphylococcus aureus = tested on: Staphylococcus aureus
Method: as §1

Candida albicans = tested on: Candida albicans
Method: as §1

Measured: inhibition activity (in words)

CCCCCCn1c(-c2ccc(OC)c(OC)c2)nc(-c2ccc(Br)cc2)c1-c1ccc(Br)cc1 [4,5-bis(4-bromophenyl)-1-hexyl-2-(3,4-dimethoxyphenyl)-1H-imidazole]
highest inhibition activity: all assays above
